# From paper PMC6556873, “Rapid Covalent-Probe Discovery by Electrophile-Fragment Screening” (Journal of the American Chemical Society, 2019)
# Read-outs that look alike come from different tables or passages of the source.
# How the values were obtained:
# in vitro [1] = assay: in vitro; parameters: species or system HB2, CCD841; conditions: human, hek293 cells
# in vitro [2] = assay: in vitro; parameters: species or system CCD841, HEK293; conditions: human, hb2 cells, read-out: HB-2 Cells Viability (%)
# PCAF = target: T1, PCAF (Homo sapiens, UniProt Q92831); parameters: Intact protein LC/MS covalent labelling, fragments in pools of five, 200 uM each, 4 °C; conditions: 24 h, 4 °C, pool of five; 200 µM; covalent
# T1 construct: gene KAT2B
# T1 sequence (Q92831 whole entry, the tested form may be a part): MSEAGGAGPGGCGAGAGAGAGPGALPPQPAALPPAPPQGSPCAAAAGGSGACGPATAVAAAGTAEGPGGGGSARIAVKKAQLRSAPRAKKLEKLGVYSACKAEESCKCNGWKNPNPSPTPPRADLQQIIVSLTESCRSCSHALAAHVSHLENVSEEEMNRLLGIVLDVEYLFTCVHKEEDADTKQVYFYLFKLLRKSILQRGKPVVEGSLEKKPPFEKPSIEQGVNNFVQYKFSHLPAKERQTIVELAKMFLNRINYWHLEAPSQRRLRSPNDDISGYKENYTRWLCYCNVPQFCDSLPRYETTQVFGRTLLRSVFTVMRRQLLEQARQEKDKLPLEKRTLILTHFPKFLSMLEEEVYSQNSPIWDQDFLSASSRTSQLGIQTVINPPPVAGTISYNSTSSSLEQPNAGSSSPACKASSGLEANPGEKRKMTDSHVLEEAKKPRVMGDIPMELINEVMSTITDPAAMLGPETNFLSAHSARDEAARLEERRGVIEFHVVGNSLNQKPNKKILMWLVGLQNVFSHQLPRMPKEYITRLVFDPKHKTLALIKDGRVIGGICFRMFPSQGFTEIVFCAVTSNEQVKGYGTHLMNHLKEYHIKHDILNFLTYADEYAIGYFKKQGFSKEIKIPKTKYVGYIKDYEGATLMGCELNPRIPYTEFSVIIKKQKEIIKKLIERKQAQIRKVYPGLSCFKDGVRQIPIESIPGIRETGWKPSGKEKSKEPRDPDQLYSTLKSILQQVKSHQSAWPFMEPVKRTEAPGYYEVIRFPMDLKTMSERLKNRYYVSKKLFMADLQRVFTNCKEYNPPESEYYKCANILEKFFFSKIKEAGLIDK
# Protocol: (§1) Incubations were performed at 200 μM for each compound and 2 μM of protein (10 μM for BSA) for 24 h at 4 °C with moderate shaking. Incubation buffers varied among proteins (PBS pH 7.4 for QSOX1 and BSA; 10 mM HEPES pH 7.5, 0.3 M NaCl, 0.5 mM TCEP for PCAF, UPS8, and NUDT7; […]; 10 mM Na2HPO4 pH 7.5 100 mM NaCl 5 mM β-mercaptoethanol for NV3CP; 20 mM Na phosphate pH 7.5 for NNMT; […]. The reaction was stopped by quenching with formic acid, 0.4% final concentration. Each protein was incubated with the electrophilic library in pools of five compounds per well. The pool’s composition maximized the difference in mass between fragments in the same well. Incubations were performed with each fragment at 200 μM, for 24 h at 4 °C, to allow the screening of proteins that are not stable for long time periods at higher temperatures. Following incubation, we used intact protein [compound left out] chromatography/mass spectrometry (LC/MS) to identify the fragments and quantify their labeling (Figure 3A). […] There was good agreement between the percent of labeling of NUDT7 by 100 random individual compounds and that obtained in pools of five (R^2=0.78; Figure S6 and Data set 2 in the Supporting Information).
# OTUB2 (OTUB2A) = target: T2, OTUB2 (OTUB2A) (Homo sapiens, UniProt Q96DC9); parameters: Intact protein LC/MS covalent labelling, fragments in pools of five, 200 uM each, 4 °C; conditions: 24 h, 4 °C, pool of five; 200 µM; covalent
# T2 construct: full length residues 1-234, E. coli BL21(DE3)-R3, His tag removed by TEV, construct 27312 Da
# T2 sequence (Q96DC9 1-234): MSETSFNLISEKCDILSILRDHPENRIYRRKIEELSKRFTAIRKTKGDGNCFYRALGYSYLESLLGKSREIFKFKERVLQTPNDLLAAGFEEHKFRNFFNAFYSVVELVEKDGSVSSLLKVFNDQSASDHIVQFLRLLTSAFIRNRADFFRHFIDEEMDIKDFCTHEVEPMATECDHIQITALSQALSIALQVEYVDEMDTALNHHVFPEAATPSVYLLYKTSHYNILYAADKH
# Protocol: as §1
# NUDT7 = target: T3, NUDT7 (Homo sapiens, UniProt P0C024); parameters: Intact protein LC/MS covalent labelling, fragments in pools of five, 200 uM each, 4 °C; conditions: 24 h, 4 °C, pool of five; 200 µM; covalent
# T3 construct: residues 14-235, E. coli, pNIC28-Bsa4, N-terminal His6 tag removed by TEV, construct 26672 Da
# T3 sequence (P0C024 14-235): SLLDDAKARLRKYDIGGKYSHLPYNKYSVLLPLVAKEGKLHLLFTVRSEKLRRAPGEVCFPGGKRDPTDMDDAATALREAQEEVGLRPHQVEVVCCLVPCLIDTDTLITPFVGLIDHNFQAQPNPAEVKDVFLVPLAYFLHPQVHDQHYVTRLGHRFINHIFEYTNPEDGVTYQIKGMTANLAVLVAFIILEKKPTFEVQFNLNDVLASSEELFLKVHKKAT
# Protocol: as §1
# BSA = target: T4, BSA (Bos taurus, UniProt P02769); parameters: Intact protein LC/MS covalent labelling, fragments in pools of five, 200 uM each, 4 °C; conditions: 24 h, 4 °C, pool of five; 200 µM; covalent
# T4 construct: gene ALB
# T4 sequence (P02769 whole entry, the tested form may be a part): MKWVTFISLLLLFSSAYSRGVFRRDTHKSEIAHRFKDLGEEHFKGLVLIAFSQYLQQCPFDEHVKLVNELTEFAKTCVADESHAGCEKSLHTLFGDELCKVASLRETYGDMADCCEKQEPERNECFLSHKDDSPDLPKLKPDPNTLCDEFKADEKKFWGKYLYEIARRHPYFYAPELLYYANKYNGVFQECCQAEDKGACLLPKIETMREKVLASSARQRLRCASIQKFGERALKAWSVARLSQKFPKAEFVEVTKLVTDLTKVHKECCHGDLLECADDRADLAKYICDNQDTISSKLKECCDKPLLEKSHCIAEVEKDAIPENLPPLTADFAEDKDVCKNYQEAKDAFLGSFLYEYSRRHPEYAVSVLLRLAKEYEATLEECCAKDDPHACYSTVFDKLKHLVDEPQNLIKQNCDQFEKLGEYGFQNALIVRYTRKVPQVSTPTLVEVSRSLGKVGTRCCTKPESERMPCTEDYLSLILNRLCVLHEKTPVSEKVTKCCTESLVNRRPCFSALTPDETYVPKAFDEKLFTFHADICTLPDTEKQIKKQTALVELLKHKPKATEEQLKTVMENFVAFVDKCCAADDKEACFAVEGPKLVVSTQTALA
# Protocol: as §1
# in vitro [3] = assay: in vitro; parameters: species or system HB2, HEK293; conditions: human, ccd841 cells
PCAF (PCAF),OTUB2 (OTUB2 (OTUB2A)),NUDT7 (NUDT7),BSA (BSA),Structure (SMILES),"viability at 48 h, 10 µM (in vitro [1]) [%]","viability at 48 h, 10 µM (in vitro [2]) [%]","viability at 48 h, 10 µM (in vitro [3]) [%]"
0,0.28,0,0,O=C(CCl)NCc1ccccc1 [PCM-0102538],,,
0,0,,0,C=CC(=O)N1CCCC(c2cnn(C)c2)C1 (centres unmarked) [PCM-0102641],81.4,107,115
0,0,,0,C=CC(=O)N1C2CCC1CC(O)(Cc1ccc(F)cc1F)C2 (centres unmarked) [PCM-0102642],92.5,102,103
0,0.09,,0,C=CC(=O)N1CCCC(Cn2ccnn2)C1 (centres unmarked) [PCM-0102647],102,101,102
0,0,,0,O=C(CCl)N(C1CC1)C1CCCc2ccccc21 (centres unmarked) [PCM-0102774],4,5.8,5.8
0,0,0,0,C=CC(=O)Nc1cc(C)on1 [PCM-0102805],,,
0,0.13,,0,O=C(CCl)NC1CCC2(CC1)OCCO2 [PCM-0102820],111,107,96.8
0,0,0,0,C=CC(=O)N1CCc2ncsc2C1 [PCM-0102847],,,
0,0,,0,C=CC(=O)Nc1nc(-c2ccc(O)cc2)cs1 [PCM-0102884],65.4,75.2,80
0,0,0,0,Cc1ccccc1CN1CCCN(C(=O)CCl)CC1.Cl [PCM-0102911],,,
0,0,0,0,C=CC(=O)NCc1ccc2cnn(C)c2c1 [PCM-0102947],,,
0,0,1,,O=C(Nc1ccccc1)NN(C(=O)CCl)c1ccccc1 [PCM-0102957],0.8,3.7,1.1
0,0,,0,CN(Cc1cccc(Cl)c1)C(=O)CCl [PCM-0102976],31.2,18.9,67.9
0,0.12,0,0,C=CC(=O)Nc1ccccc1C [PCM-0103000],,,
0,0.6,,0,O=C(CCl)NCC#Cc1ccccc1 [PCM-0103007],59.4,78.1,84.1
0,0,0,0,C=CC(=O)Nc1ccc(OC)cc1 [PCM-0103034],,,
0,0,0,0,Cc1ccc(CN2CCCN(C(=O)CCl)CC2)cc1.Cl [PCM-0103056],,,

# More lines, now with the values behind:
Structure (SMILES),PCAF (PCAF),OTUB2 (OTUB2 (OTUB2A)),NUDT7 (NUDT7),BSA (BSA),"viability at 48 h, 10 µM (in vitro [1]) [%]","viability at 48 h, 10 µM (in vitro [2]) [%]","viability at 48 h, 10 µM (in vitro [3]) [%]"
Cl.O=C(CCl)N1CCN(c2ncccn2)CC1 [PCM-0102093],0,0,0,0,63.9,57.5,83.3
O=C(CCl)N1CCN(c2ccc([N+](=O)[O-])cc2)CC1 [PCM-0102094],0,0,0.27,0,1.3,1.2,9.2
CC(NC(=O)CCl)c1ccc(Cl)c(Cl)c1 (centres unmarked) [PCM-0102096],0,0.26,0.51,0,21.3,28.9,58.1
O=C(CCl)Nc1cccc2ncccc12 [PCM-0102097],0,0.42,0,0,27.9,49,51.3
Cc1ccc([N+](=O)[O-])cc1NC(=O)CCl [PCM-0102098],0,0.33,0.12,0,1.2,1.1,2
Cc1c(C#N)c(NC(=O)CCl)n(-c2ccc(F)cc2)c1C [PCM-0102099],0,0,0.17,0,11.6,33.6,53.9
O=C(CCl)Nc1ccc(-c2nnc3n2CCCCC3)cc1 [PCM-0102101],0,0.28,0,0,17.5,36.7,61.9
Cc1ccc(C2=NN(C(=O)CCl)C(c3ccco3)C2)o1 (centres unmarked) [PCM-0102102],0,0,0.2,0,1.6,9.4,12.7
CCN1CCC(NC(=O)CCl)CC1.Cl [PCM-0102103],0,0,0,0,66.8,96,84.1
C=CC(=O)Nc1ccc(F)cc1 [PCM-0102111],0,0,0,0.2,,,
O=C(CCl)Nc1nc2ccc(Br)cc2s1 [PCM-0102126],0,0.12,1,,92.5,83.6,92.7
O=C(CCl)N1c2ccccc2NC(=O)C12CCCC2 [PCM-0102159],0,0,0.18,0,,,
NS(=O)(=O)c1ccc2c(c1)CCN2C(=O)CCl [PCM-0102229],0,0.21,0,0,,,
O=C(CCl)N1CCSC1c1ccccc1F (centres unmarked) [PCM-0102293],0,0.12,0.83,0,,,
COc1cc2c(cc1OC)CN(C(=O)CCl)CC2 [PCM-0102317],0,0.14,0.1,0,,,
CN(C(=O)CCl)c1ccccc1 [PCM-0102368],0,0,0,0,,,
Cc1c(C#N)sc(NC(=O)CCl)c1C#N [PCM-0102371],0,0,0,,87.5,94.3,102
C=CC(=O)N1CCC(Cc2ccccn2)CC1 [PCM-0102473],0,0,0,,98.6,100,112
C=CC(=O)NC(C)(C)c1cc(C(F)(F)F)on1 [PCM-0102528],0,0,,0,104,99.9,109
